Type in all cases: functional
In assay [1] the target is T1, Sentrin-specific protease 7 (Homo sapiens, UniProt Q9BQF6).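 Further: Luminescence-based dose-response confirmation of ultra-high-throughput screening hits, measuring inhibition of SENP7.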
T1 sequence (Q9BQF6 whole entry): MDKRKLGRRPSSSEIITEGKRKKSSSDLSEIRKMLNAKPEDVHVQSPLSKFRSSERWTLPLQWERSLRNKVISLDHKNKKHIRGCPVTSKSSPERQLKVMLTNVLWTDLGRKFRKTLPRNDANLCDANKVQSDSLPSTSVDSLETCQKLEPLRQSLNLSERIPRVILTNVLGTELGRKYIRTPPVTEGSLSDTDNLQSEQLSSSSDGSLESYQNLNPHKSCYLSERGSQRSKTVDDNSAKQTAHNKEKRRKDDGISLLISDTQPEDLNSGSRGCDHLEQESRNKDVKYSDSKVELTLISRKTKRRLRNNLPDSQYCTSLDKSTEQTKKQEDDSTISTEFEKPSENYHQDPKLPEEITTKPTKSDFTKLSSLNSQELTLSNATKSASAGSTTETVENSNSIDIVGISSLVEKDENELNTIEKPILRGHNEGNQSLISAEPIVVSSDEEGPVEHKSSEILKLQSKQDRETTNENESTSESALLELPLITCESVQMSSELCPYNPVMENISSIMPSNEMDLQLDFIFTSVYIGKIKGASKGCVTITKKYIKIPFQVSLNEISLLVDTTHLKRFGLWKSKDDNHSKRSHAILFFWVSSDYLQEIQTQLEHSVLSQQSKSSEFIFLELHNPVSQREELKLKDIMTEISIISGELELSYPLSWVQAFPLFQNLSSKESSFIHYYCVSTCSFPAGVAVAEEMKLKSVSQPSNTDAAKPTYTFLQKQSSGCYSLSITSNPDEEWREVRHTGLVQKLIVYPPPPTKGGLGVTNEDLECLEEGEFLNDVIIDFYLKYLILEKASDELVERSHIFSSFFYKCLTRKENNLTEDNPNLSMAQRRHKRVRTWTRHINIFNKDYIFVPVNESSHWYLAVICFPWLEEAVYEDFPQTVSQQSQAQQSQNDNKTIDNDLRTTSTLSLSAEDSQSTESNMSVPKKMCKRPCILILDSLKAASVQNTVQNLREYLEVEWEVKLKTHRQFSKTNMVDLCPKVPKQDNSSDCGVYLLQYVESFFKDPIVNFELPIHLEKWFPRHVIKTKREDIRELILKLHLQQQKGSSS

Assay [2] addresses T2, Sentrin-specific protease 6 (Homo sapiens, UniProt Q9GZR1).
T2 sequence (Q9GZR1 whole entry): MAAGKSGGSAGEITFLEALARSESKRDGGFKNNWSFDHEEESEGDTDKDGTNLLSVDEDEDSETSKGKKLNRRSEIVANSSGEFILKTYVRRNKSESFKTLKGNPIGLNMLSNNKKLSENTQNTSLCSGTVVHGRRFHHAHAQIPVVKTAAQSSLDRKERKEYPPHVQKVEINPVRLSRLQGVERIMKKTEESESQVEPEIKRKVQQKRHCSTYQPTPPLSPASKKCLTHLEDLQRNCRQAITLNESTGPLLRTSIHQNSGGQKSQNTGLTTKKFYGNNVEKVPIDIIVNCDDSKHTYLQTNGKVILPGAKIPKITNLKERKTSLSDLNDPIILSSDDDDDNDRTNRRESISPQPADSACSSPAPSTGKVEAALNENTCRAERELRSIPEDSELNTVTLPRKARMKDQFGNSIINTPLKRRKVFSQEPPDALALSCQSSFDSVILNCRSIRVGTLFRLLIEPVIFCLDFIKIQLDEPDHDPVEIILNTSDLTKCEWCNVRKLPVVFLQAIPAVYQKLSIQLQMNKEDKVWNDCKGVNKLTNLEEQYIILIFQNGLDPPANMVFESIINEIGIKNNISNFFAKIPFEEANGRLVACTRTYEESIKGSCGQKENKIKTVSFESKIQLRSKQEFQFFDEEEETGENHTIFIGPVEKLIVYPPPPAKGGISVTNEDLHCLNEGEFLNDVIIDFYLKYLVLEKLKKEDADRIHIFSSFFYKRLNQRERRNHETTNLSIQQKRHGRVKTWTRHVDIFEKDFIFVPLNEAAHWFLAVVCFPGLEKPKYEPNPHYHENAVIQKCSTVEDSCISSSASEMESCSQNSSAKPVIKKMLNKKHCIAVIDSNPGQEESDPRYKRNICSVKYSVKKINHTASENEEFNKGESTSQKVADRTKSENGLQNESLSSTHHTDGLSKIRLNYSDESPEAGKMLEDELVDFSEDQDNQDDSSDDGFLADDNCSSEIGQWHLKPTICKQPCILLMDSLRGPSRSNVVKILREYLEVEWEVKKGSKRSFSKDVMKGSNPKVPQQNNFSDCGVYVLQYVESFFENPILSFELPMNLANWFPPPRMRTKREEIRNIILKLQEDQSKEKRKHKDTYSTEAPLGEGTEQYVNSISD

A further assay addresses T3, Caspase-3 (Homo sapiens, UniProt P42574).
T3 sequence (P42574 whole entry): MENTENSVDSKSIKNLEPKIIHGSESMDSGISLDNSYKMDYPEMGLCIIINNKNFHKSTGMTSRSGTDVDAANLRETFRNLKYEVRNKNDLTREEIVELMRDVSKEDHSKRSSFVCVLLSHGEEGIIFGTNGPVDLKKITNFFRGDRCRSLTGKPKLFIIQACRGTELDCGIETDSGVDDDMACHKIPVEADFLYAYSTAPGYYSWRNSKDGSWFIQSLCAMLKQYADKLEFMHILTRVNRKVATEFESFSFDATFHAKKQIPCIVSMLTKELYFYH

Assay [3] deals with T4, Sentrin-specific protease 8 (Homo sapiens, UniProt Q96LD8).
T4 sequence (Q96LD8 whole entry): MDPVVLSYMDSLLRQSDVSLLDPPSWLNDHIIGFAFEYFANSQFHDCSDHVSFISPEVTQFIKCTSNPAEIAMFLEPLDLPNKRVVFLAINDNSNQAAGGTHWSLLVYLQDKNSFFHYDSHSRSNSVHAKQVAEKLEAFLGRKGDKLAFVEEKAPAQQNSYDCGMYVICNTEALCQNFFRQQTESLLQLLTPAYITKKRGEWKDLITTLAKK

For assay [4], the target named is Cyclin-dependent kinase 7 (Homo sapiens, UniProt P50613).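 Further: value comes from a kinome-wide kinase profiling panel in which CDK7 is one member.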
The target in assay [5] is Cyclin-dependent kinase 9 (Homo sapiens, UniProt P50750).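 Further: value from the CDK9 entry of a kinome-spanning kinase panel.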
The target in assay [6] is Serine/threonine-protein kinase TBK1 (Homo sapiens, UniProt Q9UHD2). Description: Navigating the Kinome. Panel member name: TBK1.
The target in assay [7] is Glycogen synthase kinase-3 beta (Homo sapiens, UniProt P49841).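 Further: value comes from a broad kinome profiling panel, with GSK3B as the panel member.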
The target of assay [8] is Tyrosine-protein kinase JAK2 (Homo sapiens, UniProt O60674).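 Further: JAK2 tested as one member of a kinase panel.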
Assay [9] concerns the target Mitogen-activated protein kinase kinase kinase kinase 2 (Homo sapiens, UniProt Q12851).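 Further: measured as one member of a kinome-wide kinase panel, with MAP4K2 as the panel entry.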

Active and inactive are the calls of the source. Bounds are passed on as bounds.

Chain of Serine/threonine-protein kinase TBK1 (Q9UHD2 whole entry): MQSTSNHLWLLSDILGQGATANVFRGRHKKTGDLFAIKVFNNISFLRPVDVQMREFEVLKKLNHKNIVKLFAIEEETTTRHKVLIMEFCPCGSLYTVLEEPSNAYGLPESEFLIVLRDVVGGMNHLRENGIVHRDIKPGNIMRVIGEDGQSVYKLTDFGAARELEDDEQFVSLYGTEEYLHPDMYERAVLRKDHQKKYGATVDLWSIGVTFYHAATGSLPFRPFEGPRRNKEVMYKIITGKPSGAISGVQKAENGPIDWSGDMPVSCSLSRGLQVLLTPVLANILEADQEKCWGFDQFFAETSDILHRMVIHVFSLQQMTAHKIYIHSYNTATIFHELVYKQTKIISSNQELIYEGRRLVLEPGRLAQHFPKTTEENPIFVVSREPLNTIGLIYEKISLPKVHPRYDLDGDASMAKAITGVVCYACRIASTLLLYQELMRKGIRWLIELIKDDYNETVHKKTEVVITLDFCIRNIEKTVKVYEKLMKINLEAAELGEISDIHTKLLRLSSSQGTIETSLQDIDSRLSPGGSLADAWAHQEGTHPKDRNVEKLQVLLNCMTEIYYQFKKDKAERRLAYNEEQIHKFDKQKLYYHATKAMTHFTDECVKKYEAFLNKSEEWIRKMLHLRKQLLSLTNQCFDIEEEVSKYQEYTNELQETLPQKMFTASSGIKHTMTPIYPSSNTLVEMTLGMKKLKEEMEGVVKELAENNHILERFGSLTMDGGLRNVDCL
Chain of Cyclin-dependent kinase 9 (P50750 whole entry): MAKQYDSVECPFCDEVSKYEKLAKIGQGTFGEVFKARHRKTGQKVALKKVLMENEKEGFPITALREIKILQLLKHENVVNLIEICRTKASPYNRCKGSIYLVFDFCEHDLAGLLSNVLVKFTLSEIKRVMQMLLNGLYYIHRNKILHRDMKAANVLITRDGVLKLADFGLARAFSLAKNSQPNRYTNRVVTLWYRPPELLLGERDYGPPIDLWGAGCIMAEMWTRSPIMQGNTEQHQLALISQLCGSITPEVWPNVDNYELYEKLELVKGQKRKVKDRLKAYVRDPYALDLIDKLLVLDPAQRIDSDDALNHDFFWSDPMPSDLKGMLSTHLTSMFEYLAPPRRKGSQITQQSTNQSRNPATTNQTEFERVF
Chain of Mitogen-activated protein kinase kinase kinase kinase 2 (Q12851 whole entry): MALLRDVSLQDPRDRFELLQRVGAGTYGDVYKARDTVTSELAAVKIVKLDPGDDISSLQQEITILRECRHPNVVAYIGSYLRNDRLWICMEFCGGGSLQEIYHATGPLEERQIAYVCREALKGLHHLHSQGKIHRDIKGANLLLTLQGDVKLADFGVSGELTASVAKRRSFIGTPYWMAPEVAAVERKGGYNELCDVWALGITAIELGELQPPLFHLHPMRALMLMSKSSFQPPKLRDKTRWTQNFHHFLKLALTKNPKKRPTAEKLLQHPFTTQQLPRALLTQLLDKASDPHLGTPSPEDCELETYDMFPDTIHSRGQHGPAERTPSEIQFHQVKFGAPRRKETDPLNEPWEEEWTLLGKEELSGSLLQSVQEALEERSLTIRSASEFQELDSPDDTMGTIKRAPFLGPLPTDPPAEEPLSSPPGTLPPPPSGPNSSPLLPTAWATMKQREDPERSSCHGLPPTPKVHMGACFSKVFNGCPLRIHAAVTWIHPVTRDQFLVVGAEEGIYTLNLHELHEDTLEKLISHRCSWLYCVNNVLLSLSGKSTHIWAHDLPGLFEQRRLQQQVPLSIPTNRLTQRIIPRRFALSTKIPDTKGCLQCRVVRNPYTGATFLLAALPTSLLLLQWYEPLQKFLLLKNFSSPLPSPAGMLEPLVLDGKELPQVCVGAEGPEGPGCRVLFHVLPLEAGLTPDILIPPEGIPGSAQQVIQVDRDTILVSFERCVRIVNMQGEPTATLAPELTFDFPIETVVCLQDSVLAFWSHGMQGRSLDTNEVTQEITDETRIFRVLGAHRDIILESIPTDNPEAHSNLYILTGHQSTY
Chain of Cyclin-dependent kinase 7 (P50613 whole entry): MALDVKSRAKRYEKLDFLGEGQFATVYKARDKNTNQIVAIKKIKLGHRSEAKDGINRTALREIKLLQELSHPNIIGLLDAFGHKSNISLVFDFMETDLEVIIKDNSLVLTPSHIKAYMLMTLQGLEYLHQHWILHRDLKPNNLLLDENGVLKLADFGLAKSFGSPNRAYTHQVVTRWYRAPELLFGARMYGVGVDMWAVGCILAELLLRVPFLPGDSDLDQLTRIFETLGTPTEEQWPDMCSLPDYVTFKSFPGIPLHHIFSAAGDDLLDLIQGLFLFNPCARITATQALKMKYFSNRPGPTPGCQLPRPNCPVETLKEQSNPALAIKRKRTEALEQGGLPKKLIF
Chain of Tyrosine-protein kinase JAK2 (O60674 whole entry): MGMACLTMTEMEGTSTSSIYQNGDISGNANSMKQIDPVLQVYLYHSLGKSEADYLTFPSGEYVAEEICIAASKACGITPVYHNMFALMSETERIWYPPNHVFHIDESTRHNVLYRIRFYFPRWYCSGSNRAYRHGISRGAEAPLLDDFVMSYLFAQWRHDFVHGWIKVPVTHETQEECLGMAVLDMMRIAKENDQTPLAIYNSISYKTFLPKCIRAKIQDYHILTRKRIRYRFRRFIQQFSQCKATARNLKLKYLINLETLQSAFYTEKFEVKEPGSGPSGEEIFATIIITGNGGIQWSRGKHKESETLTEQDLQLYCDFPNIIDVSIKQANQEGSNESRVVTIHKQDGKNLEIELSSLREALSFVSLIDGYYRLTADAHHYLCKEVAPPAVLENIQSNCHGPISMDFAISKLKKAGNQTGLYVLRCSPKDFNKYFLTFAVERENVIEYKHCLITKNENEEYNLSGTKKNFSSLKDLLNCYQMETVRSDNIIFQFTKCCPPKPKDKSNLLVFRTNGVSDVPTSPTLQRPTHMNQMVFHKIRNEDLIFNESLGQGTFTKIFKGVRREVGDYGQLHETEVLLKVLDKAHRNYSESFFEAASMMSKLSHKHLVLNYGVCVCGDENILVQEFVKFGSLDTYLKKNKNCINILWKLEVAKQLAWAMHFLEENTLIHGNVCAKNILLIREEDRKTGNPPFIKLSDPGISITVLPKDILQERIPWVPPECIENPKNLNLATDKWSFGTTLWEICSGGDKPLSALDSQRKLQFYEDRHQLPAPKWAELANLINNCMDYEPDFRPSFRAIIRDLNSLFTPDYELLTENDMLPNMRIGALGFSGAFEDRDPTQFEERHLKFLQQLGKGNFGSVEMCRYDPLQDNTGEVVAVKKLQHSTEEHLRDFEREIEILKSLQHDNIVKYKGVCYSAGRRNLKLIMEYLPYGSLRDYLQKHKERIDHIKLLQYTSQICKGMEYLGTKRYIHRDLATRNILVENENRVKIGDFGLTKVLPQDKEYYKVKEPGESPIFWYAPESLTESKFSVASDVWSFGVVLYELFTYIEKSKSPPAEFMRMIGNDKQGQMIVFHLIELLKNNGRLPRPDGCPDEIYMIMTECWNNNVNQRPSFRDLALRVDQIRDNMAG
Chain of Glycogen synthase kinase-3 beta (P49841 whole entry): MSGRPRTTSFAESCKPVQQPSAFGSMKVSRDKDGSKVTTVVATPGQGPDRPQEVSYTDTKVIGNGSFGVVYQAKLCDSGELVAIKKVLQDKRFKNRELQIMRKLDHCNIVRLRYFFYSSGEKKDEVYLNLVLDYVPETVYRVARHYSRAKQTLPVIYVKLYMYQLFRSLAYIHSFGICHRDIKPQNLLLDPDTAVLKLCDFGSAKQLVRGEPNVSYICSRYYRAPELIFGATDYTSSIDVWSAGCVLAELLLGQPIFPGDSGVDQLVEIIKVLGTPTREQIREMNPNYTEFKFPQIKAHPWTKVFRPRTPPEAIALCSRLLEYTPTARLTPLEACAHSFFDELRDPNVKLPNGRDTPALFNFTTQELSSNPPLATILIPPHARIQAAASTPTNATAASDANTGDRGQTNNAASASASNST

With `Cc1ccc(NC2=C(NCCO)C(=O)c3ccccc3C2=O)cc1`, the IC50 in assay [1] is 11.6 µM (active); in assay [2] it was 6.66 µM (active); at Caspase-3, 11.4 µM (active); in assay [3], 9.12 µM (active).
On the same counts, the results for `CC(/C=C1\SC(=S)N(NS(=O)(=O)c2ccc(C)cc2)C1=O)=C\c1ccccc1` are 43.9 µM (active), 3.12 µM (active), 12.9 µM (active) and 3.94 µM (active).
On to `Cc1ccc(C)c(NC(=O)c2cc(-c3ccco3)nc3ccccc23)c1`, for which the Ki in assay [4] is 3.98 µM (active); in assay [5], 0.398 µM (active); in assay [6] it was > 3.16 µM (inactive); in assay [7], 1.58 µM (active).
Regarding `COc1ccc(C2=NNc3cccc4c(OC)ccc2c34)cc1OC`, the Ki in assay [4] was > 3.98 µM (inactive); in [5], 0.2 µM (active); in assay [6], 0.631 µM (active); in assay [8], 1 µM (active); in assay [7] it was > 3.98 µM (inactive); in assay [9], 2 µM (active).
For the compound `CN1CCC(c2c(O)cc(O)c3c(=O)cc(-c4ccccc4Cl)oc23)C(O)C1` (stereo not given), the Ki in assay [8] was > 2 µM (inactive); in assay [9], 1 µM (active).

What is called IC50 is the concentration that gives 50% inhibition. By Ki is commonly meant a dissociation constant, usually derived from enzyme kinetics or from competition with a known ligand.

Source of the values: ChEMBL document CHEMBL1201862, “PubChem BioAssay data set” (2004).
